target: T1, human progesterone receptor-A [PRA] isoform (Homo sapiens, UniProt P06401); experiment: Radioligand binding with human progesterone receptor cytosol ([3H]-progesterone competition); conditions: PRA cytosol expressed in insect SF21 cells, [3H]Prog ~0.8 nM, 4° C. overnight; Ki by Cheng-Prusoff, KL ~4.5 nM; read-out: Ki (nM) PR
T1 construct: host or cells: insect SF21 cells (baculovirus)
T1 sequence (P06401 1-769 isoform P06401-2): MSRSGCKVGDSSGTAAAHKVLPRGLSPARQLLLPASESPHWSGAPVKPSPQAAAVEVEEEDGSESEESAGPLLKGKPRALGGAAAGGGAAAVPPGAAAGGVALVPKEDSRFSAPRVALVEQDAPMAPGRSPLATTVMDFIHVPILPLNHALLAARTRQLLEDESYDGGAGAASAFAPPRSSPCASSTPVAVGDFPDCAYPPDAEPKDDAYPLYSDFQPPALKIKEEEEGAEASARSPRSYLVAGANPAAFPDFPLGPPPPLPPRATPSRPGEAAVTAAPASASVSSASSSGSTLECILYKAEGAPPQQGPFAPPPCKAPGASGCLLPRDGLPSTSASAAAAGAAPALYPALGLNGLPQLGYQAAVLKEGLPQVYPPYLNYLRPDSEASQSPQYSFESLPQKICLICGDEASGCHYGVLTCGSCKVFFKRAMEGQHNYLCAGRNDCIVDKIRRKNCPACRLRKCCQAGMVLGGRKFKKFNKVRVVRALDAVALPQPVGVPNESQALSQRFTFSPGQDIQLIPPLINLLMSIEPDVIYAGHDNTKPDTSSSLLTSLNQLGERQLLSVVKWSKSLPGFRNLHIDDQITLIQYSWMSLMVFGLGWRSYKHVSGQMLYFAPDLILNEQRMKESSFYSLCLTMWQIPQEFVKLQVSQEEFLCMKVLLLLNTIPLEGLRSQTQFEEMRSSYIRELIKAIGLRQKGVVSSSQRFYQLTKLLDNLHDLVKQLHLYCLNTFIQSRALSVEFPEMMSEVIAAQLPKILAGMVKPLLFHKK

Point of comparison: `CCOC(=O)C1Oc2cccc(OC)c2-c2ccc3c(c21)C(C)=CC(C)(C)N3` (stereo not shown) [Example 208, 2,5-Dihydro-10-methoxy-5-(carboethoxy)-2,2,4-trimethyl-1H-[1]benzopyrano[3,4-f]quinoline], Ki 970 nM. Against it:
- COc1cccc2c1-c1ccc3c(c1C(=Cc1ccccc1)O2)C(C)=CC(C)(C)N3 (mixture of isomers) [Example 18, 2,5-Dihydro-10-methoxy-2,2,4-trimethyl-5-(phenylmethylene)-1H-[1]benzopyrano[3,4-f]quinoline] — within 1.5-fold, 1040 nM
- COc1cccc2c1-c1ccc3c(c1C(C1C=CCCCC1)O2)C(C)=CC(C)(C)N3 (mixture of isomers) [Example 144] — higher, ≥ 10000 nM
- COc1cccc2c1-c1ccc3c(c1C(C1C=CCC1)O2)C(C)=CC(C)(C)N3 (racemic) [Example 136] — 2.8-fold higher, 2700 nM
- C=CCC1Oc2ccc(OC(=O)CCC(=O)N(C)C)c(Cl)c2-c2ccc3c(c21)C(C)=CC(C)(C)N3 (racemic) [Example 421, (+/−)2,5-Dihydro-9-(4-N,N-dimethylamino-4-oxo-butanoyloxy)-10-chloro-2,2,4-trimethyl-5-allyl-1H-[1]benzopyrano[3,4-f]quinoline] — 84-fold lower, 11.6 nM
- COc1cccc2c1-c1ccc3c(c1C(c1cc(Cl)cc(Cl)c1)O2)C(C)=CC(C)(C)N3 (single isomer, unassigned; (+)) [Example 33, (+)-5-(3,5-Dichlorophenyl)-2,5-dihydro-10-methoxy-2,2,4-trimethyl-1H-[1]benzopyrano[3,4-f]quinoline] — 8.6-fold higher, 8320 nM
- COc1cccc2c1-c1ccc3c(c1C(c1cc(Cl)cc(Cl)c1)O2)C(C)=CC(C)(C)N3 (single isomer, unassigned; (-)) [Example 32, (−)-5-(3,5-Dichlorophenyl)-2,5-dihydro-10-methoxy-2,2,4-trimethyl-1H-[1]benzopyrano[3,4-f]quinoline] — 1.6-fold higher, 1560 nM
- CCC1([C@@H]2Oc3ccc(O)c(OC)c3-c3ccc4c(c32)C(C)=CC(C)(C)N4)CC=CCC1 (single isomer, unassigned; (-)) [Example 263] — 16-fold lower, 59.6 nM
- COc1cccc2c1-c1ccc3c(c1C(c1cc(Cl)cc(Cl)c1)O2)C(C)=CC(C)(C)N3 (stereo not shown) [Example 19, 5-(3,5-Dichlorophenyl)-2,5-dihydro-10-methoxy-2,2,4-trimethyl-1H-[1]benzopyrano[3,4-f]quinoline] — 5.1-fold higher, 4970 nM
- CCCCC1Oc2cccc(OC)c2-c2ccc3c(c21)C(C)=CC(C)(C)N3 (stereo not shown) [Example 20, 5-Butyl-2,5-dihydro-10-methoxy-2,2,4-trimethyl-1H-[1]benzopyrano[3,4-f]quinoline] — 1.7-fold higher, 1680 nM
- COc1cccc2c1-c1ccc3c(c1C(CC(C)=O)O2)C(C)=CC(C)(C)N3 (stereo not shown) [Example 45, 1-(2,5-Dihydro-10-methoxy-2,2,4-trimethyl-1H-[1]benzopyrano[3,4-f]quinolin-5-yl)-2-propanone] — higher, ≥ 10000 nM
- COc1cccc2c1-c1ccc3c(c1C(Cc1ccccc1)O2)C(C)=CC(C)(C)N3 (stereo not shown) [Example 53, 2,5-Dihydro-10-methoxy-2,2,4-trimethyl-5-(phenylmethyl)-1H-[1]benzopyrano[3,4-f]quinoline] — 3-fold higher, 2910 nM
- COc1cccc2c1-c1ccc3c(c1C(C)O2)C(C)=CC(C)(C)N3 (stereo not shown) [Example 57, 2,5-Dihydro-10-methoxy-2,2,4,5-tetramethyl-1H-[1]benzopyrano[3,4-f]quinoline] — 4.4-fold higher, 4280 nM
- COc1cccc2c1-c1ccc3c(c1C(CCN(C)C)O2)C(C)=CC(C)(C)N3 (stereo not shown) [Example 64, 2,5-Dihydro-10-methoxy-2,2,4,N,N-pentamethyl-1H-[1]benzopyrano[3,4-f]quinoline5-ethanamine] — 1.7-fold higher, 1670 nM
- COc1cccc2c1-c1ccc3c(c1C(CCCO)O2)C(C)=CC(C)(C)N3 (stereo not shown) [Example 69, 2,5-Dihydro-10-methoxy-2,2,4-trimethyl-1H-[1]benzopyrano[3,4-f]quinoline-5-propanol] — 18-fold higher, 17300 nM
- C#CCOc1cccc(C2Oc3cccc(OC)c3-c3ccc4c(c32)C(C)=CC(C)(C)N4)c1 (stereo not shown) [Example 92, 2,5-Dihydro-10-methoxy-2,2,4-trimethyl-5-[3-(2-propynyloxy)phenyl]-1H-[1]benzopyrano[3,4-f]quinoline] — higher, ≥ 10000 nM
- CNc1cc(C)cc(C2Oc3cccc(OC)c3-c3ccc4c(c32)C(C)=CC(C)(C)N4)c1 (stereo not shown) [Example 114, 3-(2,5-Dihydro-10-methoxy-2,2,4-trimethyl-1H-[1]benzopyrano[3,4-f]quinolin-5-methyl)-5,N-dimethylbenzenamine] — higher, ≥ 10000 nM
- C=CCNc1cccc(C2Oc3cccc(OC)c3-c3ccc4c(c32)C(C)=CC(C)(C)N4)c1 (stereo not shown) [Example 117, 3-(2,5-Dihydro-10-methoxy-2,2,4-trimethyl-1H-[1]benzopyrano[3,4-f]quinolin-5-yl)-N-(2-propenyl)benzenamine] — higher, ≥ 10000 nM
- COc1cccc2c1-c1ccc3c(c1C(C1C=CCCCCC1)O2)C(C)=CC(C)(C)N3 (stereo not shown) [Example 143, 2,5-Dihydro-10-methoxy-5-(3-cyclooctenyl)-2,2,4-trimethyl-1H-[1]benzopyrano[3,4f]quinoline] — 8.4-fold higher, 8100 nM
- COc1cccc2c1-c1ccc3c(c1C(CC1=CCCCC1)O2)C(C)=CC(C)(C)N3 (stereo not shown) [Example 145, 2,5-Dihydro-10-methoxy-5-(1-cyclohexenylmethyl)-2,2,4-trimethyl-1H-[1]benzopyrano[3,4-f]quinoline] — higher, ≥ 10000 nM
- C=C(Br)CC1Oc2cccc(OC)c2-c2ccc3c(c21)C(C)=CC(C)(C)N3 (stereo not shown) [Example 147, 2,5-Dihydro-10-methoxy-5-(2-bromo-3-propenyl)-2,2,4-trimethyl-1H-[1]benzopyrano[3,4-f]quinoline] — 9.6-fold higher, 9300 nM
- C=CC(=C)CC1Oc2cccc(OC)c2-c2ccc3c(c21)C(C)=CC(C)(C)N3 (stereo not shown) [Example 172] — 10-fold higher, 9900 nM
- C=C(CC1Oc2cccc(OC)c2-c2ccc3c(c21)C(C)=CC(C)(C)N3)C(=O)OC (stereo not shown) [Example 173, 2,5-Dihydro-10-methoxy-5-(2-carbomethoxy-3-propenyl)-2,2,4-trimethyl-1H-[1]benzopyrano[3,4-f]quinoline] — higher, ≥ 10000 nM
- COc1cccc2c1-c1ccc3c(c1C(CC=C1CCCCCC1)O2)C(C)=CC(C)(C)N3 (stereo not shown) [Example 189, 2,5-Dihydro-10-methoxy-5-(2-cycloheptylidenylethyl)-2,2,4-trimethyl-1H-[1]benzopyrano[3,4-f]quinoline] — 1.8-fold higher, 1700 nM
- COc1cccc2c1-c1ccc3c(c1C(CCO)O2)C(C)=CC(C)(C)N3 (stereo not shown) [Example 199, 2,5-Dihydro-10-methoxy-5-(2-hydroxyethyl)-2,2,4-trimethyl-1H-[1]benzopyrano[3,4-f]quinoline] — higher, ≥ 10000 nM
- COc1cccc2c1-c1ccc3c(c1C(C1CCCC1)O2)C(C)=CC(C)(C)N3 (stereo not shown) [Example 209, 2,5-Dihydro-10-methoxy-5-(cyclopentyl)-2,2,4-trimethyl-1H-[1]benzopyrano[3,4-f]quinoline] — 5.6-fold higher, 5460 nM
- COc1cccc2c1-c1ccc3c(c1C(C1CCCCC1)O2)C(C)=CC(C)(C)N3 (stereo not shown) [Example 212, 2,5-Dihydro-10-methoxy-5-(cyclohexyl)-2,2,4-trimethyl-1H-[1]benzopyrano[3,4-f]quinoline] — higher, ≥ 10000 nM
- CC1=CC(C)(C)Nc2ccc3c(c21)[C@H]([C@@H]1C=CCC1)Oc1ccc(O)c(Cl)c1-3 [Example 221, (−)2,5(S)-Dihydro-9-hydroxy-10-chloro-2,2,4-trimethyl-5-(3S-cyclopentenyl)-1H-[1]benzopyrano[3,4-f]quinoline] — 230-fold lower, 4.2 nM
